Results: patent US20230061319A1, “METHODS OF TREATING TUMORS” (CoImmune, Inc., priority 2020, published 2023)

Experiments:
B cells = assay: TGF-β secretion by stimulated PBMCs from mRCC patients (ELISA); settings: everolimus 10 ng/mL, 6 days, supernatant
Experimental: Frozen patient PBMC were thawed, counted, and washed in PBS. The cells were resuspended in X-VIVO 15 media (with gentamicin and phenol red; Lonza) at 2x10^6 cells/mL and incubated overnight in a 5% CO2 incubator at 37° C. The cells were counted and set up in culture at 1x10^6 cells/mL in X-VIVO 15 media. […] Everolimus (LC Laboratories) was added at 10 ng/mL to unstimulated or stimulated cultures. The cultures were incubated overnight in a 5% CO2 incubator at 37° C. for six days.
The concentration of total TGF-β1 in plasma and supernatant samples was quantified using the LEGEND MAX Total TGF-β1 ELISA Kit (Biolegend). Samples were prepared by acid treatment to activate latent TGF-β1 and then diluted 1:20 or 1:100 in assay buffer. Samples were incubated on a plate pre-coated with anti-TGF-β1 antibody for 2 hours. Anti-TGF-β1 was incubated for 1 hour, and the plate was washed and incubated with Avidin-HRP for 30 minutes. The plate was developed with TMB substrate solution and Stop solution, and was read at 450 nm and 570 nm using an ELx800 plate reader.
Thus, the impact of everolimus on B cell TGF-β production was investigated. PBMCs from mRCC patients were stimulated (“stim”) or left unstimulated (“control”) with or without everolimus addition as described in Example 1 to induce TGF-β secretion. TGF-β concentrations in the supernatant were measured after 6 days by ELISA.

[1] = system: healthy donor PBMC T cells; assay: Healthy donor PBMCs stimulated with autologous PME-CD40L-CMV DCs with mRCC patient plasma with or without everolimus; assay type: cell-based, human
Experimental: PBMCs and DCs were thawed and washed in PBS (Lonza) prior to counting. Post maturation electroporated monocyte-derived dendritic cells (PME-CD40L) were generated from healthy donors as described in DeBenedette MA. et al., J Immunol. 181(8):5296-5305 (2008) (incorporated herein by reference in its entirety), and were co-electroporated with RNA encoding the pp65 CMV protein and RNA encoding CD40L. Viable cell counts were performed using BD TruCount Absolute Counting Tubes and propidium iodide (BD Biosciences) by flow cytometry. PBMCs and DCs were re-suspended in X-Vivo15 (with gentamicin and phenol red) (Lonza) containing 10% normal human AB serum (Valley biomedical). […] Frozen PBMC vials from 2 HLA-mismatched healthy donors were thawed and counted. […] Purified Mouse anti-human CD3 (clone OKT3, BD Biosciences) was used to stimulate healthy donor PBMCs in culture.
HLA-mismatched healthy donor PBMCs were mixed and cultured for 7 days in the presence of 2% mRCC patient plasma and with or without 20 ng of everolimus added on day 0, and the frequency of CD28^+ memory T cells was determined. […] To expand the understating whereby everolimus can reduce the immune suppressive impact of mRCC, patient plasma PBMCs were stimulated with autologous DCs presenting the pp65 CMV antigen. Healthy donor PBMCs and autologous DCs were mixed and cultured for 6 days in the presence of 2% mRCC patient plasma and with or without 20 ng of everolimus added on day 0.
Furthermore, the impact of everolimus on the suppressive effect of mRCC patient plasma when PBMCs were stimulated with autologous DCs was examined.
To understand the ability of everolimus to restore the frequency of CD25^+CD28^+ T cells, the expression of both CD25 and CD28 on CD8 T cells stimulated in the MLR or with autologous DCs in the presence of mRCC patient plasma was measured by the geometric mean fluorescence intensity (MFI).

[2] = autologous DCs 6 days, 2% mRCC patient plasma, 20 ng everolimus
[3] = autologous DCs, mRCC patient plasma, everolimus, statistically significant

CO[C@H]1C[C@@H]2CC[C@@H](C)[C@@](O)(O2)C(=O)C(=O)N2CCCC[C@H]2C(=O)O[C@H]([C@H](C)C[C@@H]2CC[C@@H](OCCO)[C@H](OC)C2)CC(=O)[C@H](C)/C=C(\C)[C@@H](O)[C@@H](OC)C(=O)[C@H](C)C[C@H](C)/C=C/C=C/C=C/1C [everolimus]
concentration of TGF-β secreted by stimulated B cells (B cells): decrease | expression of CD25 on CD8 T cells (MFI) [1, 2]: statistically significant increase | expression of CD28 on CD8 T cells (MFI) [1, 2]: statistically significant increase | frequency of proliferating CD28- CD4 T cells [1, 2]: little impact | frequency of proliferating CD28+ CD4 T cells suppressed by mRCC patient plasma ([1]; autologous DCs 6 days, 2% mRCC patient plasma, 20 ng everolimus on day 0, not statistically significant (p<0.283)): partially restored | plasma mediated suppression of proliferating CD28+ CD8 T cells ([1]; autologous DCs 6 days, 2% mRCC patient plasma, 20 ng everolimus, p< 0.0002): partially reversed | frequency of proliferating CD28- CD8 T cells ([1]; autologous DCs 6 days, 2% mRCC patient plasma, 20 ng everolimus, p<0.92): minimal ability to decrease | frequency of CD25+CD28+ CD4 T cells ([1]; autologous DCs, mRCC patient plasma, everolimus, did not reach statistical significance): partially restored | frequency of CD25+CD28+ CD8 T cells [1, 3]: partially restore | frequency of CD25+CD28- CD8 T cells [1, 3]: partially restore
